Measured values reported in patent US20250163387A1, “HUMAN PITUITARY NEUROENDOCRINE TUMOR ORGANOIDS AND METHODS OF MAKING AND USING THE SAME” (ARIZONA BOARD OF REGENTS OF THE UNIVERSITY OF ARIZONA, A …, priority 2022, published 2025).

Legend:
Format in all cases: cell-based, human
[1] = test system: hPITOs generated from CD patients; test: High-throughput drug screen, MTS assay; details: 1 uM, 72 hrs
Description: Patient adenoma-derived pituitary organoids were grown in 96-well plates and treated with 147 small molecules taken from the NCI AOD9 compound library for 72 hrs. (https://dtp.cancer.gov/organization/dscb/obtaining/available_plates.html). Drugs were diluted from 10 mM DMSO stock plates into 100 uM DMSO working stocks with a final concentration of 1 uM. All vehicle controls were treated with 0.1% DMSO. Organoid proliferation was measured using CellTiter 96® AQueous One Solution Cell Proliferation Assay kit (MTS, Promega, G3582) according to the manufacturer's instruction. Organoid death was calculated based on the absorbance readings at 490 nm, collected from the MTS assay relative to the vehicle controls. Drug screens were performed with biological replicates in same screen. Drugs were selected based on their ability to target key signaling pathways and clinical relevance to the treatment. Drug sensitivity is represented by cell viability and is significant at <0.5 suppressive effect of the drugs. The percent cell viability relative to the vehicle control was calculated. Correlation coefficient across each organoid were calculated using Pearson method to assess confidence in replication. Variance Component was detected for each drug across all organoids. A random effect model was run with a single random factor for each drug and estimated variance was calculated by rejecting the null hypothesis that there isn't variation among samples. The drug responses were grouped by variance factor large (vc>100), median (100>vc>50), and small (vc<50). Heatmap was used to display the differential responses in cell viability for the drugs.
Tumor recurrence can occur in as many as 30-50% of CD patients after successful surgical treatment. Unfortunately, bilateral adrenalectomy is the chosen surgical treatment for patients with persistent CD [35]. Bilateral adrenalectomy leads to the increased risk for development of Nelson's syndrome (progressive hyperpigmentation due to ACTH secretion and expansion of the residual pituitary tumor). Although the risk of developing Nelson's syndrome following adrenalectomy can be reduced by 50% with stereotactic radiotherapy, there is a need to develop medical therapies that directly target the pituitary adenoma. Thus, we established a high-throughput drug screening assay using patient-derived pituitary organoids. […] The replicates behaved consistently with the drug response with the correlation scores of >0.8 for these samples (FIG. 3a). We estimated the variance component for each drug across all organoids. […] The drug responses were grouped by variance factor large, median, and small. The larger the variance the more variable is the drug response across the organoids. […]

hPITO39 = test: Nuclear Morphometric Analysis (NII); details: compared to pasireotide and ketoconazole
Description: Nuclear Morphometric Analysis (NMA) using treated organoids was performed based on a published protocol that measures cell viability based on the changes in nuclear morphology of the cells using nuclear stain Hoechst or DAPI [30]. Images of organoid nuclei were analyzed using the ImageJ Nuclear Irregularity Index (NII) plugin for key parameters that included cell area, radius ratio, area box, aspect, and roundness. Using the published spreadsheet template, the NII of each cell was calculated with the following formula: NII=Aspect−Area Box+Radius Ratio+Roundness. The area vs NII of vehicle-treated cells were plotted as a scatter plot using the template and considered as the normal cell nuclei. The same plots were generated for each condition, and the NII and area of treated cells were compared to the normal nuclei, and classified as one of the following NMA populations: Normal (N; similar area and NII), Mitotic (S; similar area, slightly higher NII), Irregular (I; similar area, high NII), Small Regular (SR; apoptotic, low area and NII), Senescent (LR; high area, low NII), Small Irregular (SI; low area, high NII), or Large Irregular (LI; high area, high NII). […] The percentage of cells in each NII classification category were calculated and plotted as a histogram using GraphPad Prism. […]

hPITO37 = test: Spectral flow cytometry (SSTR2, SSTR5, ACTH, zombie); details: Mife 2.85 nM
Description: (§1) The multicolor flow cytometry panel was designed using the Cytek®Full Spectrum Viewer online tool to calculate the similarity index. The organoids were harvested in cold SFDM media and centrifuged at 400×g for 5 minutes. Supernatant was discarded and organoids were dissociated to single cells using Accutase® (Thermo Fisher Scientific 00-4555-56). The enzymatic reaction was stopped using prewarmed DPBS and cells were then centrifuged at 400×g for 5 minutes and incubated with fluorochrome-conjugated/unconjugated primary surface or cytoplasmic antibodies at 4° C. for 30 minutes. Cells were then washed with Cell Staining Buffer (BioLegend #420-201) and incubated with secondary antibodies at 4° C. for 30 minutes. Cells were fixed using Cytofix/Cytoperm™ Fixation/Permeabilization Solution (BD Biosciences #554714) at 4° C. for 20 minutes, followed by washing with Fixation/Permeabilization wash buffer. Cells were then labeled with fluorochrome-conjugated/unconjugated intracellular primary antibodies at 4° C. for 30 minutes, washed and incubated with secondary antibodies at 4° C. for 30 minutes. Cells resuspended in cell staining buffer and fluorescence measured using the Cytek Aurora 5 Laser Spectral Flow Cytometer. An unstained cell sample was fixed and used as reference control. UltraComp eBeads™, Compensation Beads (Thermo Fisher Scientific #01-2222-42) were stained with the individual antibodies and used as single stain control for compensation and gating. Data was acquired using the Cytek™ Aurora and analyzed using Cytobank software (Beckman Coulter, Indianapolis, IN).

iPSC^USP48MV organoids = test: as above; details: Rela 500 nM, Mife 500 nM
Description: as §1

**Q.** How did the “response of the adenoma cells within the organoids” value ([1]; hPITO7, 10 and 25) turn out when `CC#C[C@]1(O)CC[C@H]2[C@@H]3CCC4=CC(=O)CCC4=C3[C@@H](c3ccc(N(C)C)cc3)C[C@@]21C` [Mifepristone] was run?
**A.** The value was about 0%.

**Q.** And the “response of the adenoma cells within the organoids” value ([1]; hPITO34 and hPITO35)?
**A.** The value was 50%.

**Q.** What about the “Apoptosis by nuclear morphometric analysis” value (hPITO39) of the same molecule?
**A.** The value was “induced significant apoptosis”.

**Q.** What about the “number of ACTH expressing cells” value (hPITO37) of the same molecule?
**A.** Its value is “significantly increased”.

**Q.** What about the “cell death (Zombie positive cells)” value (hPITO37; Pas 837.5 nM, Rela 382 nM) of the same molecule?
**A.** The value was “not observed”.

**Q.** What about the “percentage of SSTR2 positive cells” value (hPITO37; Rela 382 nM, vs Veh) of the same molecule?
**A.** The value was “significant increase”.

**Q.** And the “percentage of SSTR5 positive cells” value (hPITO37; Rela 382 nM, vs Veh)?
**A.** The value was “significant increase”.

**Q.** What about the ACTH positive cells (iPSC^USP48MV organoids; Pas 100 nM) of the same molecule?
**A.** Its ACTH positive cells is “significant induction”.

**Q.** What about the “cell death (Zombie positive cells)” value (iPSC^USP48MV organoids; Pas 100 nM) of the same molecule?
**A.** Its value is “not observed”.

**Q.** What about the “percentage of SSTR2 positive cells” value (iPSC^USP48MV organoids; vs Veh) of the same molecule?
**A.** Its value is “significant increase”.

**Q.** What about the “percentage of SSTR5 positive cells” value (iPSC^USP48MV organoids; vs Veh) of the same molecule?
**A.** The value was “significant increase”.
